{"source": "patent US11458138B2", "about": "(Novartis AG, priority 2017, dated 2022)", "key": {"[1]": {"test_system": "corneal endothelial cell population", "assay": "Immunohistochemical analysis of expanded corneal endothelial cell population", "type": "cell-based, human", "description": "(1) The cells express Na/K ATPase. The expression of Na/K ATPase may be estimated by standard techniques known in the art, such as for example immunohistochemistry, quantitative RT-PCR or by FACS analysis."}, "[2]": {"test_system": "Corneal Endothelial Cells (CECs)", "assay": "ZO-1 immunolabelling of expanded CECs", "type": "cell-based, human", "settings": "vs vehicle DMSO", "description": "CECs proliferated in the presence of the vehicle alone (DMSO) show signs of polymegatism characteristic of dysfunctional CECs (FIG. 18a).\n(2) The cells are able to form tight junctions. This may be checked by a standard technique known in the art, immunofluorescence staining of tight-junction marker Zonula Occludens-1 (ZO-1).\n(3) The cells are able to be regularly arranged in the cell layer. This may be checked by a standard technique known in the art, immunofluorescence staining of tight-junction marker Zonula Occludens-1 (ZO-1)."}, "[3]": {"test_system": "corneal endothelial cell population", "assay": "Quantitative RT-PCR of expanded corneal endothelial cell population", "type": "cell-based, human", "description": "(2) The cells express one or more of Collagen 8a2, AQP1 (aquaporin 1) and SLC4A11 (Solute Carrier Family 4 Member 11). […] The expression of Collagen 8a2, AQP1 or SLC4A11 may be estimated by standard techniques known in the art, such as for example immunohistochemistry, quantitative RT-PCR or by FACS analysis.\nThe expression of RPE65 and CD31 may be estimated by standard techniques known in the art, such as for example quantitative RT-PCR, immunohistochemistry or FACS analysis."}, "LATS1": {"molecular_target": "LATS1 (Homo sapiens (Human), UniProt O95835)", "sequence (O95835 whole entry)": "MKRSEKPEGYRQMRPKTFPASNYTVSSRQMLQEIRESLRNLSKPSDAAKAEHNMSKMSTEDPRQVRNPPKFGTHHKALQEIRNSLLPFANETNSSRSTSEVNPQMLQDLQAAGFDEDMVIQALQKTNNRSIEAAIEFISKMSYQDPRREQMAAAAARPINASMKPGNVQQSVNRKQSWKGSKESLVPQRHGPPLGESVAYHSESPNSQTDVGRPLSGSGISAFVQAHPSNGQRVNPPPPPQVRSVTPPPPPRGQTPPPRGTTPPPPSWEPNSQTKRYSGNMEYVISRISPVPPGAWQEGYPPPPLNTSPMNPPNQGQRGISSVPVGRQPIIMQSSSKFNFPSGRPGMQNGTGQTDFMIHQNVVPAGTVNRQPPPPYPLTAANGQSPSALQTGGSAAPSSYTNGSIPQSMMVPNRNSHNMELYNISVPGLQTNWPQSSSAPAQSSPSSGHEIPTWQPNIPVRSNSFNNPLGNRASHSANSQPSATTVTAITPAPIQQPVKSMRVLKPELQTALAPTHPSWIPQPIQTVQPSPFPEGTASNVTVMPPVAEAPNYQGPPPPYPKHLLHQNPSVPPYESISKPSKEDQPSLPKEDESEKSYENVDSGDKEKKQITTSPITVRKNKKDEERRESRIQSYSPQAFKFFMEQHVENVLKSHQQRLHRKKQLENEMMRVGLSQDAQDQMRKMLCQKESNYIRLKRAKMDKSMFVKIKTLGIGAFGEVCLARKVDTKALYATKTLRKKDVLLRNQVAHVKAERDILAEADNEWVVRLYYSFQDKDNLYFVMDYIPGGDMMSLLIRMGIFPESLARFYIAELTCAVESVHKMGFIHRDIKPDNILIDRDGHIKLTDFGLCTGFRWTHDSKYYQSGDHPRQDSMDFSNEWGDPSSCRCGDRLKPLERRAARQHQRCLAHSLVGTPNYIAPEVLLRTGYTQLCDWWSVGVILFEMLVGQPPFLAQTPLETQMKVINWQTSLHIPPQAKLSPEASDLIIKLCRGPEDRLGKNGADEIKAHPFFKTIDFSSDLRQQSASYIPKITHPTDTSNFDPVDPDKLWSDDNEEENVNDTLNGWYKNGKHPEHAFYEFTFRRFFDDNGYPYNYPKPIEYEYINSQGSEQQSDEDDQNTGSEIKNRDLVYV", "assay": "Target Identification Assay: inhibition of LATS1 activity (FIG. 33C)", "type": "biochemical", "settings": "read-out: IC50 against LATS1", "description": "The result further confirmed that the compounds of the invention are potent inhibitors of the LATS kinases."}, "[4]": {"test_system": "pYAP (Ser127) in human HaCaT cells", "assay": "Target Identification Assay: western blot for pYAP in HaCaT cell lysates", "type": "cell-based", "settings": "9 μM for 1 hour in the presence of 0.5 μM Okadaic acid", "description": "Compounds of Formula A1, or subformulae thereof, selectively target LATS1/2 versus MST1/2 kinases. To identify the target of the hits from the YAP translocation assay screen, the Target Identification Assay as described in the Examples Section A was performed. The results of the assay are described in FIGS. 33A to 33C.\nIt is consistent with the consensus in the field that LATS is responsible for YAP phosphorylation."}, "YAP target gene Cyr61": {"test_system": "YAP target gene Cyr61", "assay": "In Vivo PD Assay: YAP target gene expression in mouse excisional wounds", "settings": "mouse full-thickness excisional wounds, topical 0.2 and 2 mg/mL, two daily doses, vs vehicle, dose-dependent", "description": "The compounds of the invention also activate the YAP pathway in vivo. A study of YAP pathway target gene expression was conducted in an in vivo mouse model as described in the In Vivo PD Assay in the Examples Section A. Two full-thickness excisional wounds on the dorsum of an anesthetized mouse were treated topically with vehicle, or 0.2 and 2 mg/mL of Example 133. After two daily doses, the skin samples around the wound edge were collected and Taqman analyses were performed using Cyr61 and Gapdh probes. mRNA expression levels for the target genes were normalized to Gapdh mRNA levels and plotted against the concentration of Example 133 in FIG. 34. […] The result is consistent with known LATS biology for activation of the YAP pathway."}, "mouse dorsal skin": {"test_system": "mouse dorsal skin", "assay": "In Vivo Histology and Ki67 Staining Assay (skin cell proliferation)", "settings": "intact mouse dorsal skin, topical, three days of twice-a-day dosing, vs vehicle", "description": "Further, the compounds of the invention increase skin cell proliferation in vivo when applied topically. The study was conducted as described the “In Vivo Histology and Ki67 Staining Assay” in the Examples Section A. Example 133 or vehicle were applied to intact mouse dorsal skin. After three days of twice-a-day dosing, the skin samples were collected and subjected to immunohistology staining for Ki67. The sections were evaluated visually for cell proliferation and for the abundance of Ki67 positive cells. The study results are documented in FIGS. 35A and 35B.\nFIG. 35B compares the abundance of Ki67 positive cell in untreated and treated mouse skin. […] Also, by using siRNA to knockdown both LATS1 and LATS2, LATS as a negative regulator of the YAP pathway has also been validated."}, "CTGF mRNA in liver": {"test_system": "CTGF mRNA in liver", "assay": "In vivo treatment of mice: quantitative RT-PCR, CTGF", "settings": "mouse liver, single oral dose 10 mg/kg, 2 h post-dose, relative to vehicle, mean+/-SEM", "description": "All animal studies were carried out in accordance with federal, state, local and institutional guidelines governing the use of laboratory animals in research. Male C57BL/6J mice (age 8-10 weeks) were purchased from Jackson Labs (Bar Harbor, Me.). Example 46 was formulated for oral dosing at 3 mg/ml, and Example 261 at 1 mg/ml, in a suspension of methylcellulose:Tween80:Water (0.5:0.5:99). Single oral dose of either compound was at 10 mL/kg body weight. Blood and liver tissue were collected under deep anesthesia (isoflurane) at either 2 h post-dose (for mRNA analysis) or 24 h post-dose (for immunohistochemistry).\nTotal liver RNA was isolated from tissue after storage in RNAlater reagent (Qiagen), using a TRIzol method according to the manufacturer's instructions (Life Technologies). Relative mRNA abundance was measured by quantitative RT-PCR using TaqMan gene expression assays and reagents according to standard protocols (Applied Biosystems). Mouse probes for YAP target genes were CTGF (Mm01192933_g1) and Cyr61 (Mm00487498_m1). […] Relative changes in mRNA were calculated by the ΔΔCt method. Changes in gene expression with compound treatment are expressed as fold-change relative to the vehicle group."}}, "note": "“Also recorded” adds a separate entry of the source.", "data": [{"smiles": "CC(C)(O)CC(C)(C)Nc1nc(-c2ccncc2)nc2cnccc12", "note": "[Example 49, 2,4-dimethyl-4-{[2-(pyridin-4-yl)pyrido[3,4-d]pyrimidin-4-yl]amino}pentan-2-ol]", "values": [{"measurement": "expression of Na/K ATPase and Collagen 8a2 by immunohistochemistry", "setting": "[1]", "value": "express genes normally expressed by corneal endothelial cells in vivo"}, {"measurement": "tight junctions, cell size and morphology of CECs (ZO-1)", "setting": "[2]", "value": "form tight junctions, an endothelial structure and retain a normal cell size and morphology"}, {"measurement": "expression of Collagen 8a2, AQP1, SLc4A11 by quantitative RT-PCR", "setting": "[3]", "value": "express genes normally expressed by corneal endothelial cells in vivo"}, {"measurement": "expression of RPE65 and CD31 by quantitative RT-PCR", "setting": "[3]", "value": "do not express markers of other epithelia present in the eye"}]}, {"smiles": "Cc1n[nH]cc1-c1nc(NC2(C)CC2)c2ccncc2n1", "note": "[Example 133, 2-(3-methyl-1H-pyrazol-4-yl)-N-(1-methylcyclopropyl)pyrido[3,4-d]pyrimidin-4-amine]", "values": [{"measurement": "IC50", "setting": "LATS1", "value": 1.3, "unit": "nM"}, {"measurement": "pYAP by western blot", "setting": "[4]", "value": "dramatically inhibited"}, {"measurement": "YAP target gene Cyr61 mRNA normalized to Gapdh", "setting": "YAP target gene Cyr61", "value": "significantly up-regulated; also recorded: induced YAP target gene expression"}, {"measurement": "abundance of Ki67 positive cells", "setting": "mouse dorsal skin", "value": 10, "unit": "%"}, {"measurement": "basal cell proliferation and epidermal thickness", "setting": "mouse dorsal skin", "value": "significant increase in basal cell proliferation and epidermal thickness; also recorded: increased basal layer skin cell growth"}]}, {"smiles": "CC(C)(C)Nc1cc(-c2ccncc2)nc2cnccc12", "note": "[Example 261, N-(tert-butyl)-2-(pyridin-4-yl)-1,7-naphthyridin-4-amine]", "values": [{"measurement": "CTGF mRNA (fold-change)", "setting": "CTGF mRNA in liver", "value": "2.5 (+/−0.2) fold-change"}]}]}
